The text below walks through data of PubChem BioAssay AID1963845 (Molecular Pharmacology Branch, DTP, NCI, 2024).

Molecules are shown by their SMILES. Where only a bound is given, the exact number is not on record here.
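Also: luminescence signal used as surrogate measure of viable cells; spheroids exposed to compounds for seven days before readout.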

One experiment deals with 429239-143-T-J1-PDC complex spheroid viability. The experiment in a line: Anticancer human tumor 429239-143-T-J1-PDC patient-derived small cell lung carcinoma cell line growth inhibition [POLQ]. Conditions: curve of first compound; second compound 0.0316 µM. Summed up:
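Patient-derived tumour cells were co-cultured with HUVEC and mesenchymal stem cells as multicellular spheroids at 37 °C. They were treated with POLQ inhibitors (novobiocin, ART-558, RP6685) alone or combined with other agents. Top concentrations were at or near clinical Cmax (otherwise 10 microM; SN-38 at 1 microM), decreasing in half-log steps.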
In the case of `C#Cc1c(F)ccc2cc(O)cc(-c3ncc4c(N5CC6CCC(C5)N6)nc(OCC56CCCN5CC(F)C6)nc4c3F)c12` (stereo unspecified) + Nc1ccc(C#CCN(C(=O)Cc2ncc(C(F)(F)F)cc2C(F)(F)F)c2ccc(F)cc2)nn1, the IC50 is greater than 10 µM.

Consider `CC1COCCN1c1cc(C2(O)CC3CCC(C2)O3)c2cnn(-c3ccn[nH]3)c2n1` (stereo unspecified) + Nc1ccc(C#CCN(C(=O)Cc2ncc(C(F)(F)F)cc2C(F)(F)F)c2ccc(F)cc2)nn1, for which the IC50 worked out at 0.273 µM.

Consider `CCc1cc2c(N3CCc4c(cc(Cn5ccnc5)cc4-c4cn(C)nc4C(F)(F)F)C3=O)cc(C)nc2c(OC)n1` + Nc1ccc(C#CCN(C(=O)Cc2ncc(C(F)(F)F)cc2C(F)(F)F)c2ccc(F)cc2)nn1, for which the IC50 was found to be 7.23 µM.

Turning to `COc1cc2cc(C(=O)CCC(=O)O)sc2cc1OC` + Nc1ccc(C#CCN(C(=O)Cc2ncc(C(F)(F)F)cc2C(F)(F)F)c2ccc(F)cc2)nn1, the IC50 is greater than 10 µM.

As for `O=C(Nc1ccc(O)c(NS(=O)(=O)c2ccc(F)cc2)c1)c1ccc(-c2ccccc2)cc1` + Nc1ccc(C#CCN(C(=O)Cc2ncc(C(F)(F)F)cc2C(F)(F)F)c2ccc(F)cc2)nn1, the IC50 was greater than 10 µM.

Staying with this experiment, now noted: curve of first compound; second compound 0.1 µM.
With `C#Cc1c(F)ccc2cc(O)cc(-c3ncc4c(N5CC6CCC(C5)N6)nc(OCC56CCCN5CC(F)C6)nc4c3F)c12` (stereo unspecified) + Nc1ccc(C#CCN(C(=O)Cc2ncc(C(F)(F)F)cc2C(F)(F)F)c2ccc(F)cc2)nn1, the IC50 was greater than 10 µM.

Turning to `CC1COCCN1c1cc(C2(O)CC3CCC(C2)O3)c2cnn(-c3ccn[nH]3)c2n1` (stereo unspecified) + Nc1ccc(C#CCN(C(=O)Cc2ncc(C(F)(F)F)cc2C(F)(F)F)c2ccc(F)cc2)nn1, the IC50 is 0.251 µM.

Consider `CCc1cc2c(N3CCc4c(cc(Cn5ccnc5)cc4-c4cn(C)nc4C(F)(F)F)C3=O)cc(C)nc2c(OC)n1` + Nc1ccc(C#CCN(C(=O)Cc2ncc(C(F)(F)F)cc2C(F)(F)F)c2ccc(F)cc2)nn1, for which the IC50 came to 8.6 µM.

With `COc1cc2cc(C(=O)CCC(=O)O)sc2cc1OC` + Nc1ccc(C#CCN(C(=O)Cc2ncc(C(F)(F)F)cc2C(F)(F)F)c2ccc(F)cc2)nn1, the IC50 was greater than 10 µM.

As for `O=C(Nc1ccc(O)c(NS(=O)(=O)c2ccc(F)cc2)c1)c1ccc(-c2ccccc2)cc1` + Nc1ccc(C#CCN(C(=O)Cc2ncc(C(F)(F)F)cc2C(F)(F)F)c2ccc(F)cc2)nn1, the IC50 is greater than 10 µM.

The same experiment, now with this note: curve of first compound; second compound 0.316 µM.
On to `C#Cc1c(F)ccc2cc(O)cc(-c3ncc4c(N5CC6CCC(C5)N6)nc(OCC56CCCN5CC(F)C6)nc4c3F)c12` (stereo unspecified) + Nc1ccc(C#CCN(C(=O)Cc2ncc(C(F)(F)F)cc2C(F)(F)F)c2ccc(F)cc2)nn1, for which the IC50 is greater than 10 µM.

For the compound `CC1COCCN1c1cc(C2(O)CC3CCC(C2)O3)c2cnn(-c3ccn[nH]3)c2n1` (stereo unspecified) + Nc1ccc(C#CCN(C(=O)Cc2ncc(C(F)(F)F)cc2C(F)(F)F)c2ccc(F)cc2)nn1, the IC50 is 0.269 µM.

As to `CCc1cc2c(N3CCc4c(cc(Cn5ccnc5)cc4-c4cn(C)nc4C(F)(F)F)C3=O)cc(C)nc2c(OC)n1` + Nc1ccc(C#CCN(C(=O)Cc2ncc(C(F)(F)F)cc2C(F)(F)F)c2ccc(F)cc2)nn1, the IC50 was determined as 8.7 µM.

Take `COc1cc2cc(C(=O)CCC(=O)O)sc2cc1OC` + Nc1ccc(C#CCN(C(=O)Cc2ncc(C(F)(F)F)cc2C(F)(F)F)c2ccc(F)cc2)nn1: the IC50 was greater than 10 µM.

With `O=C(Nc1ccc(O)c(NS(=O)(=O)c2ccc(F)cc2)c1)c1ccc(-c2ccccc2)cc1` + Nc1ccc(C#CCN(C(=O)Cc2ncc(C(F)(F)F)cc2C(F)(F)F)c2ccc(F)cc2)nn1, the IC50 is greater than 10 µM.

The experiment is the same for the next values; noted with them: curve of first compound; second compound 1 µM.
With `C#Cc1c(F)ccc2cc(O)cc(-c3ncc4c(N5CC6CCC(C5)N6)nc(OCC56CCCN5CC(F)C6)nc4c3F)c12` (stereo unspecified) + Nc1ccc(C#CCN(C(=O)Cc2ncc(C(F)(F)F)cc2C(F)(F)F)c2ccc(F)cc2)nn1, the IC50 was greater than 10 µM.

With `CC1COCCN1c1cc(C2(O)CC3CCC(C2)O3)c2cnn(-c3ccn[nH]3)c2n1` (stereo unspecified) + Nc1ccc(C#CCN(C(=O)Cc2ncc(C(F)(F)F)cc2C(F)(F)F)c2ccc(F)cc2)nn1, the IC50 is 0.263 µM.

Regarding `CCc1cc2c(N3CCc4c(cc(Cn5ccnc5)cc4-c4cn(C)nc4C(F)(F)F)C3=O)cc(C)nc2c(OC)n1` + Nc1ccc(C#CCN(C(=O)Cc2ncc(C(F)(F)F)cc2C(F)(F)F)c2ccc(F)cc2)nn1, the IC50 came out at 7.14 µM.

As for `COc1cc2cc(C(=O)CCC(=O)O)sc2cc1OC` + Nc1ccc(C#CCN(C(=O)Cc2ncc(C(F)(F)F)cc2C(F)(F)F)c2ccc(F)cc2)nn1, the IC50 was greater than 10 µM.

On to `O=C(Nc1ccc(O)c(NS(=O)(=O)c2ccc(F)cc2)c1)c1ccc(-c2ccccc2)cc1` + Nc1ccc(C#CCN(C(=O)Cc2ncc(C(F)(F)F)cc2C(F)(F)F)c2ccc(F)cc2)nn1, for which the IC50 is greater than 10 µM.

Staying with this experiment, now noted: curve of first compound; second compound 3.16 µM.
`C#Cc1c(F)ccc2cc(O)cc(-c3ncc4c(N5CC6CCC(C5)N6)nc(OCC56CCCN5CC(F)C6)nc4c3F)c12` (stereo unspecified) + Nc1ccc(C#CCN(C(=O)Cc2ncc(C(F)(F)F)cc2C(F)(F)F)c2ccc(F)cc2)nn1: the IC50 was greater than 10 µM.

Regarding `CC1COCCN1c1cc(C2(O)CC3CCC(C2)O3)c2cnn(-c3ccn[nH]3)c2n1` (stereo unspecified) + Nc1ccc(C#CCN(C(=O)Cc2ncc(C(F)(F)F)cc2C(F)(F)F)c2ccc(F)cc2)nn1, the IC50 was found to be 0.232 µM.

On to `CCc1cc2c(N3CCc4c(cc(Cn5ccnc5)cc4-c4cn(C)nc4C(F)(F)F)C3=O)cc(C)nc2c(OC)n1` + Nc1ccc(C#CCN(C(=O)Cc2ncc(C(F)(F)F)cc2C(F)(F)F)c2ccc(F)cc2)nn1, for which the IC50 is 7.93 µM.

For `COc1cc2cc(C(=O)CCC(=O)O)sc2cc1OC` + Nc1ccc(C#CCN(C(=O)Cc2ncc(C(F)(F)F)cc2C(F)(F)F)c2ccc(F)cc2)nn1, the IC50 was greater than 10 µM.

Regarding `O=C(Nc1ccc(O)c(NS(=O)(=O)c2ccc(F)cc2)c1)c1ccc(-c2ccccc2)cc1` + Nc1ccc(C#CCN(C(=O)Cc2ncc(C(F)(F)F)cc2C(F)(F)F)c2ccc(F)cc2)nn1, the IC50 was greater than 10 µM.

Staying with this experiment, now noted: curve of first compound; second compound 10 µM.
Turning to `C#Cc1c(F)ccc2cc(O)cc(-c3ncc4c(N5CC6CCC(C5)N6)nc(OCC56CCCN5CC(F)C6)nc4c3F)c12` (stereo unspecified) + Nc1ccc(C#CCN(C(=O)Cc2ncc(C(F)(F)F)cc2C(F)(F)F)c2ccc(F)cc2)nn1, the IC50 is greater than 10 µM.

Broadly, the IC50 is the point on the concentration scale where inhibition reaches its midpoint.
